Consider `CCOP(=O)(Cc1cccc(NC(=O)CCCc2oc(-n3cnc4ccccc43)nc2-c2ccc(Cl)cc2)c1)OCC`, for which the melting point (as a rule, the temperature of the solid-liquid transition) fell in the range of 135 to 136 °C.
`CCOP(=O)(Cc1ccccc1NC(=O)CCCc1oc(-n2cnc3ccccc32)nc1-c1ccc(Cl)cc1)OCC`: the melting point is 133 to 136 °C.
The figure for `CCOP(=O)(CCc1ccc(NC(=O)CCCc2oc(-n3cnc4ccccc43)nc2-c2ccc(Cl)cc2)cc1)OCC` is 116 to 117 °C; for `CCOP(=O)(Cc1ccc(NC(=O)CCCc2oc(N3CCN(c4ccccn4)CC3)nc2-c2ccc(Cl)cc2)cc1)OCC` it is 114 to 116 °C.
Turning to `CCOP(=O)(Cc1ccc(NC(=O)CCCc2oc(N3CCN(n4c(=O)[nH]c5ccccc54)CC3)nc2-c2ccc(Cl)cc2)cc1)OCC`, the melting point is 205 to 209 °C.
`CCOP(=O)(Cc1ccc(NC(=O)CCc2sc(-n3cnc4ccccc43)nc2-c2ccc(Cl)cc2)cc1)OCC` registered a melting point of 150 to 151 °C.
For the compound `CCOP(=O)(Cc1ccc(NC(=O)/C=C/c2sc(-n3cnc4ccccc43)nc2C)cc1)OCC`, the melting point is 150 to 151 °C.
`CCOP(=O)(Cc1ccc(NC(=O)/C=C/c2sc(-n3cnc4ccccc43)nc2-c2ccccc2)cc1)OCC` gave a melting point of 229 to 230 °C.
In turn, `CCOP(=O)(Cc1ccc(NC(=O)CCc2sc(-n3cnc4ccccc43)nc2C(C)C)cc1)OCC` yielded a melting point of 171 to 172 °C.
Regarding `CCOP(=O)(Cc1ccc(NC(=O)CCCc2sc(-n3cnc4ccccc43)nc2-c2ccc(Cl)cc2)cc1)OCC`, the melting point is 140 to 141 °C.
For `CCOP(=O)(Cc1ccc(NC(=O)CCc2oc(-c3cccs3)nc2-c2ccc(Cl)cc2)cc1)OCC`, the melting point lay within 164 to 165 °C.
As to `CCOP(=O)(Cc1ccc(NC(=O)CCCCCc2sc(-n3cnc4ccccc43)nc2-c2ccc(Cl)cc2)cc1)OCC`, the melting point was 149 to 151 °C.
With `CCOP(=O)(Cc1ccc(NC(=O)CCc2oc(-n3nnc4ccccc43)nc2-c2ccc(Cl)cc2)cc1)OCC`, the melting point is 91 to 92 °C.
Take `CCOP(=O)(Cc1ccc(NC(=O)CCc2sc(N)nc2-c2ccc(Cl)cc2)cc1)OCC`: the melting point fell in the range of 177 to 178 °C.
The compound `CCOP(=O)(Cc1ccc(NC(=O)CCc2sc(NC(=O)c3ccccc3)nc2-c2ccc(Cl)cc2)cc1)OCC` showed a melting point of 171 to 172 °C.
`CCOP(=O)(Cc1ccc(NC(=O)CCc2sc(NC(=O)CCc3ccccc3)nc2-c2ccc(Cl)cc2)cc1)OCC`: the melting point lay in the range of 208 to 209 °C.
On to `CCOP(=O)(Cc1ccc(NC(=O)CCc2oc(C)nc2-c2ccc(Cl)cc2)cc1)OCC`, for which the melting point lay within 155 to 156 °C.
As to `CCOP(=O)(Cc1ccc(NC(=O)CCc2oc(-n3cnc4ccccc43)nc2-c2ccc(OC)cc2)cc1)OCC`, the melting point fell in the range of 143 to 144 °C.
As for `CCOP(=O)(Cc1ccc(NC(=O)CCc2oc(-n3cnc4ccccc43)nc2-c2cccc(Cl)c2)cc1)OCC`, the figure is 98 to 99 °C.
The figure for `CCOP(=O)(Cc1ccc(NC(=O)CCc2oc(-n3cnc4ccccc43)nc2-c2ccc(F)cc2)cc1)OCC` is 95 to 96 °C; for `CCOP(=O)(OCC)C(F)(F)c1ccc(NC(=O)CCc2oc(-n3cnc4ccccc43)nc2-c2ccc(Cl)cc2)cc1` it is 155 to 156 °C; for `CCOP(=O)(Cc1ccc(NC(=O)CCc2oc(-n3ccnc3C)nc2-c2ccc(Cl)cc2)cc1)OCC` it is 158 to 159 °C.
As for `CCOP(=O)(Cc1ccc(NC(=O)CCc2oc(NCc3ccccc3)nc2-c2ccc(Cl)cc2)cc1)OCC`, the figure is 156 to 157 °C.
The compound `CCOP(=O)(Cc1ccc(NC(=O)CCc2oc(Sc3ccccn3)nc2-c2ccc(Cl)cc2)cc1)OCC` displayed a melting point of 146 to 147 °C.
The figure for `CCOP(=O)(Cc1ccc(NC(=O)CCCc2oc(-c3ccccc3)nc2-c2ccc(Cl)cc2)cc1)OCC` is 152 to 153 °C; for `CCOP(=O)(Cc1ccc(NC(=O)/C=C/c2oc(-c3ccccc3)nc2-c2ccc(Cl)cc2)cc1)OCC` it is 204 to 206 °C.
In turn, `CCOP(=O)(Cc1ccc(NC(=O)CCc2sc(-c3ccccc3)nc2-c2ccc(Cl)cc2)cc1)OCC` showed a melting point of 164 to 165 °C.

The values above are taken from patent publication US7183276B2, “Azole compounds” (Takeda Pharmaceutical Company Limited, priority 2002, dated 2007).
